Assay results reported in the NIST ThermoML archive (doi:10.1021/acs.jced.8b00854).

How the values were obtained:
[1] = xn = mol fraction of the nth substance listed; details: 100 kPa, Liquid, Vibrating tube method
[2] = refractive index (Na D-line) (dimensionless); xn = mol fraction of the nth substance listed; details: 100 kPa, Liquid, Standard Abbe refractometry

CCCCCCn1cc[n+](C)c1.F[B-](F)(F)F [1-hexyl-3-methylimidazolium tetrafluoroborate] + O
Details | mass density, [1] [kg/m3] | refractive index, [2]
293.15 K, x1 = 0.3006 | 1117.21 | 1.415
293.15 K, x1 = 0.4005 | 1125.26 | 1.418
293.15 K, x1 = 0.4999 | 1132.22 | 1.4195
293.15 K, x1 = 0.6008 | 1136.97 | 1.422
293.15 K, x1 = 0.7004 | 1140.58 | 1.4245
293.15 K, x1 = 0.7996 | 1143.29 | 1.425
293.15 K, x1 = 0.8997 | 1145.34 | 1.427
303.15 K, x1 = 0.3006 | 1109.91 | 1.414
303.15 K, x1 = 0.4005 | 1117.8 | 1.415
303.15 K, x1 = 0.4999 | 1125.06 | 1.417
303.15 K, x1 = 0.6008 | 1129.88 | 1.42
303.15 K, x1 = 0.7004 | 1133.55 | 1.422
303.15 K, x1 = 0.7996 | 1136.29 | 1.4235
303.15 K, x1 = 0.8997 | 1138.36 | 1.425
313.15 K, x1 = 0.3006 | 1102.56 | 1.409
313.15 K, x1 = 0.4005 | 1110.53 | 1.412
313.15 K, x1 = 0.4999 | 1117.91 | 1.4165
313.15 K, x1 = 0.6008 | 1122.81 | 1.419
313.15 K, x1 = 0.7004 | 1126.54 | 1.421
313.15 K, x1 = 0.7996 | 1129.34 | 1.4215
313.15 K, x1 = 0.8997 | 1131.42 | 1.423
323.15 K, x1 = 0.3006 | 1095.15 | 1.408
323.15 K, x1 = 0.4005 | 1103.23 | 1.4115
323.15 K, x1 = 0.4999 | 1110.76 | 1.415
323.15 K, x1 = 0.6008 | 1115.77 | 1.417
323.15 K, x1 = 0.7004 | 1119.58 | 1.419
323.15 K, x1 = 0.7996 | 1122.43 | 1.42
323.15 K, x1 = 0.8997 | 1124.55 | 1.421
333.15 K, x1 = 0.3006 | 1087.71 | 1.4075
333.15 K, x1 = 0.4005 | 1095.9 | 1.4115
333.15 K, x1 = 0.4999 | 1103.62 | 1.415
333.15 K, x1 = 0.6008 | 1108.78 | 1.4155
333.15 K, x1 = 0.7004 | 1112.66 | 1.417
333.15 K, x1 = 0.7996 | 1115.58 | 1.418
333.15 K, x1 = 0.8997 | 1117.73 | 1.419
343.15 K, x1 = 0.3006 | 1080.23 | 1.4075
343.15 K, x1 = 0.4005 | 1088.51 | 1.4095
343.15 K, x1 = 0.4999 | 1096.51 | 1.4125
343.15 K, x1 = 0.6008 | 1101.81 | 1.414
343.15 K, x1 = 0.7004 | 1105.77 | 1.4145
343.15 K, x1 = 0.7996 | 1108.76 | 1.416
343.15 K, x1 = 0.8997 | 1110.94 | 1.4165

CCCCCCCC[n+]1ccn(C)c1.F[B-](F)(F)F [1-methyl-3-octylimidazolium tetrafluoroborate] + O
Details | mass density, [1] [kg/m3] | refractive index, [2]
293.15 K, x1 = 0.3005 | 1084.34 | 1.4165
293.15 K, x1 = 0.4006 | 1089.21 | 1.4205
293.15 K, x1 = 0.5002 | 1094.12 | 1.424
293.15 K, x1 = 0.6001 | 1098.16 | 1.4265
293.15 K, x1 = 0.7006 | 1100.51 | 1.4285
293.15 K, x1 = 0.8004 | 1103.28 | 1.4305
293.15 K, x1 = 0.9015 | 1104.81 | 1.4315
303.15 K, x1 = 0.3005 | 1076.96 | 1.414
303.15 K, x1 = 0.4006 | 1082.09 | 1.419
303.15 K, x1 = 0.5002 | 1087.07 | 1.422
303.15 K, x1 = 0.6001 | 1091.18 | 1.425
303.15 K, x1 = 0.7006 | 1093.59 | 1.4265
303.15 K, x1 = 0.8004 | 1096.42 | 1.428
303.15 K, x1 = 0.9015 | 1098.01 | 1.4295
313.15 K, x1 = 0.3005 | 1069.66 | 1.413
313.15 K, x1 = 0.4006 | 1074.86 | 1.4165
313.15 K, x1 = 0.5002 | 1080 | 1.4205
313.15 K, x1 = 0.6001 | 1084.21 | 1.423
313.15 K, x1 = 0.7006 | 1086.68 | 1.4245
313.15 K, x1 = 0.8004 | 1089.58 | 1.4265
313.15 K, x1 = 0.9015 | 1091.22 | 1.427
323.15 K, x1 = 0.3005 | 1061.92 | 1.4125
323.15 K, x1 = 0.4006 | 1067.52 | 1.416
323.15 K, x1 = 0.5002 | 1072.9 | 1.419
323.15 K, x1 = 0.6001 | 1077.21 | 1.422
323.15 K, x1 = 0.7006 | 1079.77 | 1.423
323.15 K, x1 = 0.8004 | 1082.8 | 1.424
323.15 K, x1 = 0.9015 | 1084.48 | 1.4255
333.15 K, x1 = 0.3005 | – | 1.412
333.15 K, x1 = 0.4006 | – | 1.415
333.15 K, x1 = 0.5002 | – | 1.4185
333.15 K, x1 = 0.6001 | – | 1.4195
333.15 K, x1 = 0.7006 | – | 1.421
333.15 K, x1 = 0.8004 | – | 1.4225
333.15 K, x1 = 0.9015 | – | 1.4235
343.15 K, x1 = 0.3005 | 1041.36 | 1.412
343.15 K, x1 = 0.4006 | 1049.84 | 1.414
343.15 K, x1 = 0.5002 | 1057.37 | 1.417
343.15 K, x1 = 0.6001 | 1062.23 | 1.419
343.15 K, x1 = 0.7006 | 1065.07 | 1.419
343.15 K, x1 = 0.8004 | 1069.34 | 1.4205
343.15 K, x1 = 0.9015 | 1070.96 | 1.4215
